Data: publication PMC8591608, “DNDI-6148: A Novel Benzoxaborole Preclinical Candidate for the Treatment of Visceral Leishmaniasis” (Journal of Medicinal Chemistry, 2021)
Read-outs that look alike come from different tables or passages of the source.

How the values were obtained:
[1] = target: CYP2C19 (Homo sapiens, UniProt P33261); assay: CYP inhibition, CYP2C19; assay type: in vitro ADME; conditions: human liver microsomes
Description: The study was conducted by WuXi AppTec, Co., China, using the time-dependent (TDI) method. […] Following incubation with substrates (phenacetin for 1A2, diclofenac for 2C9, S-(+) mephenytoin for 2C19, dextromethorphan for 2D6, and midazolam or testosterone for 3A4), reactions were stopped by adding ice-cold acetonitrile, the samples were analyzed for the formation of metabolites by LC-MS/MS, and the percentage of inhibition was determined.

[2] = target: T1, hERG potassium channels (Homo sapiens, UniProt Q12809); assay: hERG inhibition, automated patch-clamp; assay type: cell-based; conditions: at 30 μM
T1 construct: expressed in transfected cells; host or cells: Chinese hamster ovary (CHO) cells
T1 sequence (Q12809 whole entry): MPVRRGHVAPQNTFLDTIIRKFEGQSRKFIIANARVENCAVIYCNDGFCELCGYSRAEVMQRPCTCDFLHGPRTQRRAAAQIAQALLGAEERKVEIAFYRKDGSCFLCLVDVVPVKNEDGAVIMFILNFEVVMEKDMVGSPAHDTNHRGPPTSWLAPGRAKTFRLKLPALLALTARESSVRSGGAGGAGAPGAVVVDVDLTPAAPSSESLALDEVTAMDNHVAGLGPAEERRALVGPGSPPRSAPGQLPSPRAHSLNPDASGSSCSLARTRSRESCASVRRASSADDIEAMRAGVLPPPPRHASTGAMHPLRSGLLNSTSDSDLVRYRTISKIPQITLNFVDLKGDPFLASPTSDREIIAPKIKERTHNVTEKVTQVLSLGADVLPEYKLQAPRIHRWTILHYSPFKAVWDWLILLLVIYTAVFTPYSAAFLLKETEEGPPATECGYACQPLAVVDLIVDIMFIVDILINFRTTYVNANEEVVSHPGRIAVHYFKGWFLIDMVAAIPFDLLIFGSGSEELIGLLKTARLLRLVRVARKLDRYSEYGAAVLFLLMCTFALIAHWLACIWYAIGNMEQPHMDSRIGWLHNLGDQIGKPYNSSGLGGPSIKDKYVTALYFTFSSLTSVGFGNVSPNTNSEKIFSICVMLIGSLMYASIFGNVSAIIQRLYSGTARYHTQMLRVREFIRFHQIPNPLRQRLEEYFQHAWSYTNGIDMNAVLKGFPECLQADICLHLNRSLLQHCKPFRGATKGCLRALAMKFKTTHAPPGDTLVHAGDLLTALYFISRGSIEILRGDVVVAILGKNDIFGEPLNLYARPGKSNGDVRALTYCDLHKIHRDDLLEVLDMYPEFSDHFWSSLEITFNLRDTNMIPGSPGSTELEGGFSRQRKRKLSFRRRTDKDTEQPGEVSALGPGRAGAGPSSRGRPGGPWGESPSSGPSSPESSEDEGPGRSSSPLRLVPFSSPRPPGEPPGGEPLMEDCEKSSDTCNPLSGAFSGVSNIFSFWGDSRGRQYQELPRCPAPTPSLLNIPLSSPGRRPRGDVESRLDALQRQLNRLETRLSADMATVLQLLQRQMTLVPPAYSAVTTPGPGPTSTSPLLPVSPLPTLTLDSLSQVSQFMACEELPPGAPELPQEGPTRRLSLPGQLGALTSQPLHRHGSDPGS
Description: An automated patch-clamp method (QPatch HTX) was used by WuXi AppTec, China. Chinese hamster ovary cells expressing hERG potassium channels were incubated at room temperature with test compounds (0.12, 0.37, 1.11, 3.33, 10, and 30 μM, in triplicate) or amitriptyline as a positive control.

[3] = Plasma-protein binding, dog; assay type: in vitro ADME; conditions: Beagle, pH 7.4
Description: (§1) Tests were conducted by WuXi AppTec, Co., China, using the equilibrium dialysis method and a 96-well plate format. The test compound (at 2 μM, in triplicate) in solution in plasma (Balb/c mouse, golden (Syrian) hamster, Sprague-Dawley rat, Beagle dog or human) was dialyzed against 100 mM phosphate-buffered saline (pH 7.4) on a rotating plate incubated for 6 h at 37 °C. Following the precipitation of protein with acetonitrile or acetonitrile/methanol containing both 1% phosphoric acid, the amount of compound present in each compartment was quantified by LC-MS/MS.

[4] = test system: MDR1; assay: in vitro; assay type: in vitro ADME; conditions: dog
Description: Bidirectional permeability tests with MDCK-MDR1 cells were performed by WuXi AppTec, Co., China. The test compound, at a concentration of 2 μM in 0.4% DMSO/HBSS buffer with 10 mM HEPES pH 7.4, was applied to the apical or basolateral side of the cell monolayer. Permeation of the compound from A to B direction or B to A direction was determined in triplicate over a 150 min incubation at 37 °C and 5% CO2 (95% humidity). Test and reference compounds were quantified by LC-MS/MS analysis based on the peak area ratio of analyte/internal standard.

[5] = test system: L. infantum; assay: L. infantum mouse model of VL; assay type: in vivo
[6] = Hepatocyte stability, rat; assay type: in vitro ADME; conditions: Sprague-Dawley, cryopreserved rat hepatocytes
Description: (§2) Tests were performed by WuXi AppTec, China. Following a viability check of cryopreserved hepatocytes from Sprague-Dawley rat, Beagle dog, or human, test compounds (at 1 μM) or positive controls 7-ethoxycoumarin and 7-hydroxycoumarin (at 3 μM) were incubated at 37 °C, 5% CO2 with hepatocytes in Williams’ Medium E. Following incubation of 15, 30, 60, 90, 120, 180, and 240 min, reactions were stopped by the addition of acetonitrile, the samples were centrifuged, and LC-MS/MS analysis was conducted using tolbutamide as an internal standard.

[7] = Plasma-protein binding, human; assay type: in vitro ADME; conditions: pH 7.4
Description: as §1

[8] = test system: T. brucei trypanosomes maintaining a mutated version of CPSF3 (Asn232His); assay: Drug sensitivity, T. brucei with mutated CPSF3; assay type: cell-based
Description: The clonal L. donovani cell line LdBOB (derived from MHOM/SD/62/1S-CL2D) was grown as promastigotes at 28 °C, as described previously. Bloodstream form T. brucei MiTat 1.2 clone 221a and its derived subline, 2T1, were cultured at 37 °C in the presence of 5% CO2 in HMI9-T medium, as described previously. T. brucei cell lines overexpressing CPSF3 and overexpressing a mutated version of CPSF3 (Asn232His) were generated as part of a previous study and cultured as described.[19]
Drug sensitivity assays with wild-type and transgenic T. brucei and L. donovani cell lines were carried out as previously described.[31],[32]

[9] = Hepatocyte stability, human; assay type: in vitro ADME; conditions: cryopreserved hepatocytes
Description: as §2

[10] = Plasma-protein binding, mouse; assay type: in vitro ADME; conditions: Balb/c, pH 7.4
Description: as §1

[11] = In vivo pharmacokinetics in dog; set-up: species or system male Beagle dogs; conditions: for MRT inf: read-out: MRT0-inf; for MRT last: read-out: MRT0-last
Description: DNDI-6148 was administrated intravenously at 1 mg/kg and orally at 5 mg/kg to male Beagle dogs. The formulation for the i.v. leg was 2% ethanol, 1.0 mol equiv NaOH, dextrose (5% solution) filtered, and adjusted to pH 7, and for the p.o. leg, the formulation was 2% ethanol, 1.0 mol equiv NaOH, and dextrose (5% solution). The K2-EDTA anticoagulant was added to blood samples collected at predose, 0.033 (i.v. only), 0.083 (p.o. only), 0.25, 0.5, 1, 3, 6, 9, and 24 h, and were stabilized with phosphoric acid (1% final) before analysis by LC-MS/MS. PK parameters were calculated using WinNonlin software (version 6.3).

[12] = male, Beagle, plasma, IV 1.0 mg/kg, mean
[13] = male, Beagle, plasma, PO 5 mg/kg, mean
[14] = male, Beagle, plasma, iv, i.v. 1 mg/kg

CYP2C19, sequence (P33261 whole entry): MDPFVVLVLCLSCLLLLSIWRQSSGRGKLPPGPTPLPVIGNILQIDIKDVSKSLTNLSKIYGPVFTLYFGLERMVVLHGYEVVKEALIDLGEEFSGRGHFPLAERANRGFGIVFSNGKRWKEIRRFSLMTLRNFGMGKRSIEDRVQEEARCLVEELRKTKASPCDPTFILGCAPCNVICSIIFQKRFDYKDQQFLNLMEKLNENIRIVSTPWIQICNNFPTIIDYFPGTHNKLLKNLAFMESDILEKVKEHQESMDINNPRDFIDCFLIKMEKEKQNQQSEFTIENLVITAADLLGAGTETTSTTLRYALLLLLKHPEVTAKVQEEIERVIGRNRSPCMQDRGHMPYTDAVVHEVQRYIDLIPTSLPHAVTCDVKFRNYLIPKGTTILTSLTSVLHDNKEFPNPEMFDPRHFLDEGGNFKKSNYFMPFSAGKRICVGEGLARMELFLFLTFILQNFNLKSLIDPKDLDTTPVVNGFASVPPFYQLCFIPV

Compound: Cc1c(C(=O)Nc2ccc3c(c2)B(O)OC3)nnn1-c1ccccn1 [Compound 23, N-(1-Hydroxy-1,3-dihydrobenzo[c][1,2]oxaborol-6-yl)-5-methyl-1-(pyridin-2-yl)-1H-1,2,3-triazole-4-carboxamide]
- IC50 [1]: > 50000 nM
- hERG inhibition [2]: < 20%
- fraction unbound at 6 h, 2 µM [3]: 0.13
- Papp A→B at 150 min, 2 μM ([4]; MDCK-MDR1, pH 7.4): 17.1 ×10⁻⁶ cm/s
- Papp B→A at 150 min, 2 μM ([4]; MDCK-MDR1, pH 7.4): 11.6 ×10⁻⁶ cm/s
- efflux ratio at 150 min, 2 μM ([4]; MDCK-MDR1, pH 7.4): 0.68
- efflux ratio at 2.5 h, 2 µM ([4]; MDCK-MDR1, pH 7.4): 0.7
- recovery at 150 min, 2 μM ([4]; MDCK-MDR1, pH 7.4, Mean total recovery A to B): 71.1%
- recovery at 150 min, 2 μM ([4]; MDCK-MDR1, pH 7.4, Mean total recovery B to A): 87.8%
- reduction in liver parasite burden following 5 days of p.o. dosing BID, L. infantum ([5]; 25 mg/kg BID): 96.1%
- reduction in liver parasite burden following 5 days of p.o. dosing BID, L. infantum ([5]; 50 mg/kg BID): 98.6%
- hepatocyte CLint at 1 μM [6]: 0.7 µL/min/1e6 cells
- fraction unbound at 6 h, 2 µM [7]: 0.08
- EC50 ([8]; Trypanosoma brucei): 90 ± 3.4 nM
- fold less sensitive compared to wild-type ([8]; bloodstream trypanosomes, CPSF3 Asn232His): 1.8 fold
- hepatocyte CLint at 1 μM [9]: 0.5 µL/min/1e6 cells
- fraction unbound at 6 h, 2 µM [10]: 0.07
- AUC0-inf/AUC0-last ([11]; IV 1.0 mg/kg, mean): 102%
- Tlast ([11]; IV 1.0 mg/kg, mean): 9.00 h
- AUC0-inf/AUC0-last ([11]; PO 5 mg/kg, mean): 103%
- Tlast ([11]; PO 5 mg/kg, mean): 9.00 h
- concentration at 0.033 h ([11]; male, Beagle, plasma, IV 1.0 mg/kg, 0.033 h, mean): 1560 ng/mL
- concentration at 5 min [11, 12]: 1120 ng/mL
- concentration at 0.25 h [11, 12]: 644 ng/mL
- concentration at 0.5 h [11, 12]: 534 ng/mL
- concentration at 1 h [11, 12]: 373 ng/mL
- concentration at 3 h [11, 12]: 97.7 ng/mL
- concentration at 6 h [11, 12]: 23 ng/mL
- concentration at 9 h [11, 12]: 8.8 ng/mL
- concentration at 24 h [11, 12]: 0.9 ng/mL
- AUC(0-inf) [11, 12]: 1270 ng·h/mL
- AUC(0-t) [11, 12]: 1240 ng·h/mL
- C0 [11, 12]: 1930 ng/mL
- half-life [11, 12]: 1.49 h
- MRT inf [11, 12]: 1.66 h
- MRT last [11, 12]: 1.51 h
- Vd ([11]; male, Beagle, plasma, IV 1.0 mg/kg, mean, read-out: Vdss): 1.31 L/kg
- concentration at 5 min [11, 13]: 266 ng/mL
- concentration at 0.25 h [11, 13]: 1130 ng/mL
- concentration at 0.5 h [11, 13]: 881 ng/mL
- concentration at 1 h [11, 13]: 814 ng/mL
- concentration at 3 h [11, 13]: 357 ng/mL
- concentration at 6 h [11, 13]: 54.8 ng/mL
- concentration at 9 h [11, 13]: 25.5 ng/mL
- concentration at 24 h [11, 13]: 0.9 ng/mL
- AUC(0-inf) [11, 13]: 2530 ng·h/mL
- AUC(0-t) [11, 13]: 2470 ng·h/mL
- Cmax [11, 13]: 1220 ng/mL
- Tmax [11, 13]: 0.63 h
- half-life [11, 13]: 1.46 h
- MRT inf [11, 13]: 2.42 h
- MRT last [11, 13]: 2.19 h
- Vd at 24 h [11, 14]: 1.3 L/kg
- clearance [11, 14]: 13.7 mL/min/kg
- half-life at 24 h [11, 14]: 1.5 h
- bioavailability at 24 h ([11]; male, Beagle, plasma, po, p.o. 5 mg/kg): 39%
